Tests used:
HCT116 MTAP−/− cells = assay: Inhibition of proliferation of HCT116 MTAP-/- cells (Cell-Titer Glo, 7 days); format: cell-based; details: Homo sapiens, HCT-116, 168 h (7 days) incubation, read-out: HCT116 MTAP−/− antiproliferative activity IC50
Description: The MTAP deficient human colorectal cancer cell line HCT116 MTAP−/− was constructed using CRJSPR Cas9 technology and cultured in DMEM medium supplemented with 10% fetal bovine serum (FBS, purchased from Gibco) and 1% penicillin/streptomycin (P/S, purchased from Thermo Fisher Scientific) at 37° C. with 5% CO2. HCT116 MTAP−/− cells were plated in 96 well plates (#3917, purchased from CORNING) at a concentration of 200 cells/195 μL/well. After 24 h, the compounds were diluted in a 3-fold gradient starting at 10 mM with 100% DMSO (for a total of 10 concentrations), then 4 μL of each concentration was added to 96 μL of serum-free DMEM medium for dilution. 5 μL of diluted compound at each concentration was added to the plated cell suspension and the compound was incubated with the cells for 168 h (7 days) in a cell culture incubator. The medium was then removed and 25 μL of Cell-Titer Glo® (G7570, purchased from Promega) reagent was added. Chemiluminescence values were read on a BMG and data were processed using GraphPad Prism software to calculate IC50 values for inhibition of cell proliferation by the compounds.

human MAT2A enzyme = human MAT2A enzyme (Homo sapiens (Human), UniProt P31153); assay: In vitro enzymatic inhibition activity assay on MAT2A (PiColorLock phosphate detection); format: biochemical; details: purified human MAT2A 10 nM, ATP 50 μM, L-methionine 100 μM, 6 h at 23° C.; read-out: MAT2A inhibitory activity IC50
Chain of human MAT2A enzyme (P31153 whole entry): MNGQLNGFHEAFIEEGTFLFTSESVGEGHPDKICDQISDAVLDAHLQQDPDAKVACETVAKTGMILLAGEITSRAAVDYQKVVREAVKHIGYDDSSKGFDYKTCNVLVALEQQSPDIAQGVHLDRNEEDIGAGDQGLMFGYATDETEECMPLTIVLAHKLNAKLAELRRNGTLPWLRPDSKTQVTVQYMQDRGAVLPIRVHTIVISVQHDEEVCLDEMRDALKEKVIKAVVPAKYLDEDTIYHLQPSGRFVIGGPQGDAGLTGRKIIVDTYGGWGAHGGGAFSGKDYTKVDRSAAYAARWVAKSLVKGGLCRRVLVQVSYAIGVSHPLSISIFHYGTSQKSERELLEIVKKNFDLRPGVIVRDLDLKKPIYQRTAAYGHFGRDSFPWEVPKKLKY
Summary of the method: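 Purified human MAT2A (10 nM) turned L-methionine (100 μM) and ATP (50 μM) into SAM in Tris-HCl pH 7.5 buffer with MgCl2, KCl and DTT for 6 h at 23 °C. Released phosphate was read colorimetrically at 630 nm. IC50 was fitted from an 8-point, 10-fold dilution series.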

[1] = In vivo pharmacokinetic study in CD-1 mice; details: male, mouse, single oral gavage dose of 10 mg/kg, plasma
Description: In vivo pharmacokinetic study in CD-1 mice
Twenty-four healthy adult male mice from Beijing Vital River Laboratory Animal Technology Co., Ltd. were used in the study.
CD-1 mice were administered with a single oral gavage dose of 10 mg/kg in a volume of 10 mL/kg at a concentration of 1 mg/mL.
The test article in this project is generally suspended in 0.5% hydroxypropylmethyl cellulose, 0.1% Tween 80 (W/V/V) aqueous solution at the concentration of 1 mg/mL.
Animals dosed by gavage were fasted overnight before the experiment from 16 h before dosing to 4 h after dosing. Blood was collected at 0.25, 0.5, 1, 2, 4, 6, 8, and 24 h after administration successively. The animals were lightly anesthetized with isoflurane. About 0.2 mL of whole blood was collected from the orbital venous plexus using a glass blood collection tube and placed in a sodium heparin anticoagulant tube. The sample was centrifuged at 5200 rpm for 5 min at 4° C. The plasma was transferred to a centrifuge tube and stored at −80° C. until analysis.
Analysis of plasma samples Test compounds and internal standards (warfarin or propranolol) were extracted from mouse plasma using an acetonitrile protein precipitation method and the extracts were analyzed by LC/MS/MS. The measured plasma concentration-time data of individual animals were analyzed using the non-compartmental model of WinNonlin (version 5.2.1, Pharsight) software to obtain the corresponding pharmacokinetic parameters: maximum (peak) plasma drug concentration Cmax; Time to peak Tmax; Half-life T1/2 and area under the plasma concentration-time curve extrapolated to infinite time AUC0-inf.

SMILES | IC50 (HCT116 MTAP−/− cells) [nM] | IC50 (human MAT2A enzyme) [nM] | AUC [1] [ng·h/mL] | Cmax [1] [ng/mL] | Tmax [1] [h] | half-life [1] [h]
COC(=O)c1c(N)c2ccc(Br)cc2n(-c2ccc(C(C)O)cc2)c1=O (stereo not shown) [Example 200, methyl 4-amino-7-bromo-1-(4-(1-hydroxyethyl)phenyl)-2-oxo-1,2-dihydro quinoline-3-carboxylate] | 23.4 | 1.63 |  |  |  | 
COC(=O)c1c(N)c2ccc(Br)cc2n(-c2ccc(Cl)c3cnccc23)c1=O [Example 176, methyl amino-1-(8-chloroisoquinolin-5-yl)-7-bromo-2-oxo-1,2-dihydroquinoline-3-carboxylate] | 39.2 | 2.74 |  |  |  | 
COC(=O)c1c(N)c2ccc(I)cc2n(-c2cccc3cnccc23)c1=O [Example 199, methyl 4-amino-7-iodo-1-(isoquinolin-5-yl)-2-oxo-1,2-dihydroquinoline-3-carboxylate] | 48.5 | 3.57 | 24600 | 4270 | 2.5 | 2.98
COC(=O)c1c(N)c2ccc(Br)nc2n(-c2ccc3ccncc3c2)c1=O [Example 244, methyl 4-amino-7-bromo-1-(isoquinolin-7-yl)-2-oxo-1,2-dihydro-1,8-naphthyridine-3-carboxylate] | 46.4 | 0.86 |  |  |  | 
COC(=O)c1c(N)c2ccc(C(F)(F)F)cc2n(-c2ccc(CO)cc2)c1=O [Example 86, methyl 4-amino-2-oxo-1-(4-(hydroxymethyl)phenyl)-7-(trifluoromethyl)-1,2-dihydroquinoline-3-carboxylate] | 85.2 | 2.37 |  |  |  | 
COC(=O)c1c(N)c2ccc(OC(F)(F)F)cc2n(-c2ccc([C@@H](C)O)cc2)c1=O [Example 378, methyl 4-amino-1-(4-((1R)-1-hydroxyethyl)phenyl)-2-oxo-7-(trifluoromethoxy)-1,2-dihydroquinoline-3-carboxylate] | 1.5 | 1.2 |  |  |  | 
COC(=O)c1c(N)c2ccc(Br)cc2n(-c2cccc3cnccc23)c1=O [Example 154, methyl 4-amino-7-bromo-1-(isoquinolin-5-yl)-2-oxo-1,2-dihydroquinoline-3-carboxylate] | 35.1 | 3 |  |  |  | 
COC(=O)c1c(N)c2ccc(C(F)(F)F)nc2n(-c2ccc(C)nc2)c1=O [Example 207, methyl 4-amino-1-(6-methylpyridin-3-yl)-2-oxo-7-(trifluoromethyl)-1,2-dihydro-1,8-naphthyridine-3-carboxylate] | 53.2 | 2.17 |  |  |  | 
COC(=O)c1c(N)c2ccc(C(F)(F)F)nc2n(-c2cccc3cnccc23)c1=O [Example 174, methyl 4-amino-1-(isoquinolin-5-yl)-2-oxo-7-(trifluoromethyl)-1,2-dihydro-1,8-naphthyridine-3-carboxylate] | 79 | 5.12 | 24500 | 9540 | 0.5 | 3.08

The remaining lines, values ahead:

IC50 (HCT116 MTAP−/− cells) [nM] | IC50 (human MAT2A enzyme) [nM] | AUC [1] [ng·h/mL] | Cmax [1] [ng/mL] | Tmax [1] [h] | half-life [1] [h] | SMILES
70.9 | 4.09 |  |  |  |  | COC(=O)c1c(N)c2ccc(C(F)(F)F)nc2n(-c2ccc(OC)nc2)c1=O [Example 208, methyl 4-amino-1-(6-methoxypyridin-3-yl)-2-oxo-7-(trifluoromethyl)-1,2-dihydro-1,8-naphthyridine-3-carboxylate]
41.4 | 2.71 |  |  |  |  | COC(=O)c1c(N)c2ccc(Br)nc2n(-c2cccc3cnccc23)c1=O [Example 221, methyl 4-amino-7-bromo-1-(isoquinolin-5-yl)-2-oxo-1,2-dihydro-1,8-naphthyridine-3-carboxylate]
47.3 | 0.94 |  |  |  |  | COC(=O)c1c(N)c2ccc(Br)nc2n(-c2ccc(Cl)cc2)c1=O [Example 265, methyl 4-amino-7-bromo-1-(4-chlorophenyl)-2-oxo-1,2-dihydro-1,8-naphthyridine-3-carboxylate]
61.2 | 1.72 |  |  |  |  | COC(=O)c1c(N)c2ccc(Br)nc2n(-c2cccc3c(Cl)nccc23)c1=O [Example 240, methyl 4-amino-1-(1-chloroisoquinolin-5-yl)-7-bromo-2-oxo-1,2-dihydro-1,8-naphthyridine-3-carboxylate]
25 | 1.26 |  |  |  |  | COC(=O)c1c(N)c2ccc(C(F)(F)F)nc2n(-c2ccc(Cl)nc2)c1=O [Example 203, methyl 4-amino-1-(6-chloropyridin-3-yl)-2-oxo-7-(trifluoromethyl)-1,2-dihydro-1,8-naphthyridine-3-carboxylate]
16.6 | 0.78 |  |  |  |  | COC(=O)c1c(N)c2ccc(C(F)(F)F)cc2n(-c2ccc([C@@H](C)O)cc2)c1=O [Example 272, methyl 4-amino-1-(4-(1-(R)-hydroxyethyl)phenyl)-2-oxo-7-(trifluoromethyl)-1,2-dihydroquinoline-3-carboxylate]
14.2 | 0.14 |  |  |  |  | COC(=O)c1c(N)c2ccc(I)cc2n(-c2ccc(N)cc2)c1=O [Example 252, methyl 4-amino-1-(4-aminophenyl)-7-iodo-2-oxo-1,2-dihydro quinoline-3-carboxylate]
53.5 | 6.25 |  |  |  |  | COC(=O)c1c(N)c2ccc(C(F)(F)F)cc2n(-c2ccc(C(C)O)nc2)c1=O (stereo not shown) [Example 175, methyl 4-amino-1-(6-(1-hydroxyethyl)pyridin-3-yl)-2-oxo-7-(trifluoromethyl)-1,2-dihydroquinoline-3-carboxylate]
30.9 | 1.18 |  |  |  |  | COC(=O)c1c(N)c2ccc(C(F)(F)F)nc2n(-c2ccc(Cl)cc2)c1=O [Example 173, methyl 4-amino-1-(4-chlorophenyl)-2-oxo-7-(trifluoromethyl)-1,2-dihydro-1,8-naphthyridine-3-carboxylate]
50 | 2.17 |  |  |  |  | COC(=O)c1c(N)c2ccc(C(F)(F)F)cc2n(-c2ccc(C(C)O)cc2)c1=O (stereo not shown) [Example 122, methyl 4-amino-1-(4-(1-hydroxyethyl)phenyl)-2-oxo-7-(trifluoromethyl)-1,2-dihydroquinoline-3-carboxylate]
87.2 | 0.83 |  |  |  |  | COC(=O)c1c(N)c2ccc(Br)cc2n(-c2ccc3c(c2)OCO3)c1=O [Example 92, methyl 4-amino-1-(benzo[d](1,3)dioxol-5-yl)-7-bromo-2-oxo-1,2-dihydroquinoline-3-carboxylate]
2.1 | 1.44 |  |  |  |  | COC(=O)c1c(N)c2ccc(Br)cc2n(-c2ccc([C@@H](C)O)cc2)c1=O [Example 340, methyl 4-amino-7-bromo-1-(4-(1-(R)-hydroxyethyl)phenyl)-2-oxo-1,2-dihydroquinoline-3-carboxylate]
81.5 | 0.78 | 24100 | 2320 | 1.67 | 8.44 | COC(=O)c1c(N)c2ccc(Br)cc2n(-c2ccc(N)cc2)c1=O [Example 147, methyl 4-amino-1-(4-aminophenyl)-7-bromo-2-oxo-1,2-dihydroquinoline-3-carboxylate]
32.7 | 2.37 |  |  |  |  | COC(=O)c1c(N)c2ccc(Br)nc2n(-c2ccc(C(C)O)cc2)c1=O (stereo not shown) [Example 266, methyl 4-amino-1-(4-(1-hydroxyethyl)phenyl)-7-bromo-2-oxo-1,2-dihydro-1,8-naphthyridine-3-carboxylate]

Reference: US20250221979A1, “NOVEL HETEROCYCLIC COMPOUND” (SHOUYAO HOLDINGS (BEIJING) CO., LTD., priority 2022, published 2025)
